Data taken from ChEMBL document CHEMBL5038631, “2-(2-Hydroxyethyl)piperazine derivatives as potent human carbonic anhydrase inhibitors: Synthesis, enzyme inhibition, computational studies and antiglaucoma activity” (Eur J Med Chem, 2022).

Target: Carbonic anhydrase 9 (Homo sapiens, UniProt Q16790)
Test: Inhibition of human CA9 incubated for 15 mins prior to testing by phenol red dye based stopped flow CO2 hydration assay

Row | Structure (SMILES) | Ki [nM]
1 | NS(=O)(=O)c1ccc(C(=O)N2CCNC[C@H]2CCO)cc1 | 60.5
2 | NS(=O)(=O)c1ccc(C(=O)N2CCN(Cc3ccccc3)C[C@@H]2CCO)cc1 | 14.7
3 | NS(=O)(=O)c1ccc(C(=O)N2CCN[C@H](CCO)C2)cc1 | 53.3
4 | CN1CCN(C(=O)c2ccc(S(N)(=O)=O)cc2)[C@H](CCO)C1 | 24.9
5 | NS(=O)(=O)c1ccc(C(=O)N2CCN(Cc3ccccc3)C[C@H]2CCO)cc1 | 35.2
6 | CN1CCN(C(=O)c2ccc(S(N)(=O)=O)cc2)[C@@H](CCO)C1 | 31.2
7 | NS(=O)(=O)c1ccc(C(=O)N2CCNC[C@@H]2CCO)cc1 | 51.9
8 | CN1CCN(C(=O)c2ccc(S(N)(=O)=O)cc2)C[C@H]1CCO | 6.8
9 | NS(=O)(=O)c1ccc(C(=O)N2CCN(Cc3ccccc3)[C@H](CCO)C2)cc1 | 59.9
10 | CN1CCN(C(=O)c2ccc(S(N)(=O)=O)cc2)CC1CCO (racemic) | 6.8
11 | NS(=O)(=O)c1ccc(C(=O)N2CCN(Cc3ccccc3)C(CCO)C2)cc1 (racemic) | 28.8
12 | NS(=O)(=O)c1ccc(C(=O)N2CCNC(CCO)C2)cc1 (racemic) | 34.4
